Assay results reported in patent publication US8663607B2, “Ferrate(VI)-containing compositions and methods of using ferrate(VI)” (Battelle Memorial Institute, priority 2007, dated 2014).

Experiment: Stain removal from calcium deficient hydroxyapatite disks (human tooth model), tea stain
Experimental: Tea staining Solution: 200 mL of high-purity deionized (HPDI) water was heated to boiling in a 500-mL beaker. The beaker was removed from heat and 4 Lipton™ tea bags were added. The tea bags were allowed to soak for 5 minutes. The tea bags were pressed with a spatμLa upon removal to remove liquid.
Tea staining Procedure: A calcium-deficient hydroxyapatite (HAP) disk (Clarkson Chromatography Products) was placed into a 50-mL centrifuge tube with 10 mL of tea solution. The centrifuge tube was gently shaken by hand for 15 minutes. The tea solution was decanted and replaced with 10 mL of HPDI water and vortexed for 30 seconds. The water was decanted and replaced with 10 additional mL of HPDI water and vortexed for 30 seconds. The disk was removed with forceps and patted dry with a tissue. The disk was allowed to air dry at room temperature for at least one hour.
Oxidation resistant chelating buffer: 0.25M 1-Hydroxyethylidenediphosphonic acid (etridonic acid) (Dequest® 2010, Thermphos) (HEPA) was pH adjusted by microtitration with 10N NaOH. 1.28 g of 1-Hydroxyethylidenediphosphonic acid was to a 25-mL volumetric flask and brought to volume with HPDI water. The solution was transferred to a 50-mL beaker with a stir bar and pH adjusted using 10.04N NaOH, monitored with a calibrated pH meter. Aliquat 336® (Cognis) (also suitable is Aliquat 134®) (N-methyl-tri-(n-octyl)ammonium chloride), (N-methyl TOA) or “HEPA” chelating pH Buffer: 2.5-μL of N-methyl TOA was added to 5 mL of pH 7 HEPA buffer and sonicated for 1 minute. pH 7 Sodium Dodecyl Sulfate (SDS)/HEPA Buffer: 10 mg of SDS was added to 5 mL of pH 7 HEPA buffer and sonicated for 1 minute. pH 8 SDS/HEPA Buffer: 10 mg of SDS was added to 5 mL of pH 8 HEPA buffer and sonicated for 1 minute.
• A. A tea stained disk was placed into the bowl of the bowl of a watch glass and 100 μL of pH 7 HEPA buffer was pipetted onto the disk surface. 3.7 mg of potassium ferrate(VI) was added to the disk surface and mixed gently. […] The disk was rinsed at 10 minutes with HPDI water. […] 1 mL of pH 7 HEPA buffer was added followed by 9 mL of HPDI water. 9.7 mg of potassium ferrate(VI) was added. The tube was gently hand shaken for 10 minutes. The disk was removed and rinsed with HPDI water. […] 10 mg of potassium ferrate(VI) was added to 1 mL of pH 7 HEPA buffer in a 50 mL centrifuge tube. 9 mL HPDI water was added, and the solution was shaken for a few seconds followed by the addition of a tea stained HAP disk. The disk was removed at 10 minutes and rinsed with HPDI water. […] 1.3 mg of potassium ferrate(VI) added and mixed into the solution.

[1] = disk A-2: 30 mg calcium carbonate + 250 μL HPDI water, 10 mg, no chelating buffer, rinsed at 5 minutes
[2] = disk A: 100 μL pH 7 HEPA buffer, 3.7 mg added to disk surface, rinsed at 10 minutes
[3] = disk B-1: 10 mg calcium carbonate + 12 mg in 2 mL pH 8 SDS/HEPA buffer, 5 minutes, then 1 mL buffer 45 minutes
[4] = disk B: 1 mL pH 7 HEPA buffer + 9 mL water, 9.7 mg, shaken 10 minutes
[5] = disk E: 100 μL pH 7 HEPA buffer, 1.4 mg, 5 minutes, then 100 μL pH 7 HEPA buffer 5 minutes
[6] = disk F: 100 μL pH 7 HEPA buffer + one drop of N-methyl TOA (emulsion), 1 mg
[7] = disk G: 100 μL N-methyl TOA/HEPA buffer, 0.7 mg, rinsed at 5 minutes, then 100 μL buffer 5 minutes
[8] = disk H: 100 μL N-methyl TOA/HEPA buffer, 1.3 mg, 5 minutes, then 2 x 100 μL buffer 5 minutes each
[9] = disk I: 100 μL N-methyl TOA/HEPA buffer, 1.3 mg (uneven distribution), 5 minutes, then 200 μL buffer
[10] = disk J: 200 μL N-methyl TOA/HEPA buffer, 2.3 mg, 5 minutes, then 200 μL buffer 5 minutes
[11] = disk K: 9.9 mg premixed in 1 mL N-methyl TOA/HEPA buffer, disk fully covered 10 minutes, then 400 μL buffer 45 minutes
[12] = disk L: 100 μL pH 7 SDS/HEPA buffer, 1.3 mg, 10 minutes, then 100 μL buffer ten minutes
[13] = disk M: 1 mL of 29.3 mg in 3 mL pH 7 SDS/HEPA buffer, 3 minutes, then buffer soaks 8 and 35 minutes, extra rinse
[14] = disk N: 1 mL of 29.3 mg in 3 mL pH 7 SDS/HEPA buffer, 3 minutes, then buffer soaks 8 and 35 minutes, extra rinse
[15] = disk P: overnight tea stain, 0.75 mL of 25 mg in 1.5 mL pH 8 SDS/HEPA buffer, 5 minutes, then 1 mL buffer 45 minutes, rinsed again after drying one hour
[16] = disk Q: overnight tea stain, 0.75 mL of 25 mg in 1.5 mL pH 8 SDS/HEPA buffer, 5 minutes, then 1 mL buffer 45 minutes
[17] = disk S: tea stained disk treated the same way as P and Q (replicate)
[18] = disk U: treated the same way as P and Q, then submerged in HPDI water 45 minutes instead of drying

## potassium ferrate(VI)
[1]
  L* (lightness/darkness): 69.5
  a* (blue/red): 14.4
  appearance of disk after treatment: the color was not removed
  b* (yellow/green): 26
  reflectance of visible light at 450 nm: 22.036
  reflectance of visible light at 750 nm: 64.152
  ΔE (versus tea stain): 29.21
[2]
  L* (lightness/darkness): 72
  a* (blue/red): 2.6
  appearance of disk after treatment: stained purple with rust stains
  b* (yellow/green): −1.1
  reflectance of visible light at 450 nm: 44.547
  reflectance of visible light at 750 nm: 61.521
  ΔE (versus tea stain): 13.57
[3]
  L* (lightness/darkness): 100.8
  a* (blue/red): 0.5
  appearance of disk after treatment: All stains were removed
  b* (yellow/green): 0.1
  reflectance of visible light at 450 nm: 100.124
  reflectance of visible light at 750 nm: 103.677
  ΔE (versus B-2, tea stained): 15.29
[4]
  L* (lightness/darkness): 79.1
  a* (blue/red): 1.6
  appearance of disk after treatment: stained purple with rust stains
  b* (yellow/green): −2
  reflectance of visible light at 450 nm: 57.457
  reflectance of visible light at 750 nm: 69.889
  ΔE (versus tea stain): 8.29
Disk C: 10 mg premixed in 1 mL pH 7 HEPA buffer + 9 mL water, disk removed at 10 minutes
  appearance of disk after treatment: stained purple
[5]
  L* (lightness/darkness): 90.1
  a* (blue/red): 1.3
  appearance of disk after treatment: lighter purple than previous examples
  b* (yellow/green): −2.2
  reflectance of visible light at 450 nm: 77.562
  reflectance of visible light at 750 nm: 87.011
  ΔE (versus unstained disk): 4.24
[6]
  L* (lightness/darkness): 77
  a* (blue/red): 2.1
  appearance of disk after treatment: purple with streaks where mixing occurred
  b* (yellow/green): 0.7
  reflectance of visible light at 450 nm: 44.547
  reflectance of visible light at 750 nm: 68.873
  ΔE (versus tea stain): 8.65
[7]
  L* (lightness/darkness): 94
  a* (blue/red): 0.6
  appearance of disk after treatment: purple color was removed but brown staining observed
  b* (yellow/green): −0.1
  reflectance of visible light at 450 nm: 82.923
  reflectance of visible light at 750 nm: 92.128
  ΔE (versus tea stain): 10.88
[8]
  L* (lightness/darkness): 93.6
  a* (blue/red): 1.3
  appearance of disk after treatment: light brown color
  b* (yellow/green): 0.6
  reflectance of visible light at 450 nm: 82.479
  reflectance of visible light at 750 nm: 93.202
  ΔE (versus tea stain): 10.06
[9]
  L* (lightness/darkness): 91.2
  a* (blue/red): −0.8
  appearance of disk after treatment: More decoloring was observed at the center
  b* (yellow/green): −4.7
  reflectance of visible light at 450 nm: 83.889
  reflectance of visible light at 750 nm: 83.121
  ΔE (versus tea stain): 11.69
[10]
  L* (lightness/darkness): 87.5
  a* (blue/red): −0.1
  appearance of disk after treatment: Rust spots observed
  b* (yellow/green): −3.9
  reflectance of visible light at 450 nm: 44.547
  reflectance of visible light at 750 nm: 78.071
  ΔE (versus tea stain): 9.10
[11]
  L* (lightness/darkness): 100.8
  a* (blue/red): −0.3
  appearance of disk after treatment: Significant color removal was observed
  b* (yellow/green): −2.1
  reflectance of visible light at 450 nm: 102.827
  reflectance of visible light at 750 nm: 103.311
  ΔE (versus tea stain): 17.77
[12]
  L* (lightness/darkness): 99.1
  a* (blue/red): −0.4
  appearance of disk after treatment: Most of the color was removed from the center of the disk
  b* (yellow/green): −2.2
  reflectance of visible light at 450 nm: 99.384
  reflectance of visible light at 750 nm: 98.847
  ΔE (versus tea stain): 16.32
[13]
  L* (lightness/darkness): 100.1
  a* (blue/red): 0
  b* (yellow/green): −1.9
  reflectance of visible light at 450 nm: 100.820
  reflectance of visible light at 750 nm: 102.480
  ΔE (versus disk 0): 12.15
[14]
  L* (lightness/darkness): 100.6
  a* (blue/red): −0.3
  b* (yellow/green): −1.4
  reflectance of visible light at 450 nm: 101.538
  reflectance of visible light at 750 nm: 101.930
  ΔE (versus disk O): 12.63
[15]
  L* (lightness/darkness): 103.5
  a* (blue/red): −2.1
  b* (yellow/green): −3.2
  reflectance of visible light at 450 nm: 111.059
  reflectance of visible light at 750 nm: 103.081
  ΔE (versus disk R): 25.40
[16]
  L* (lightness/darkness): 101.8
  a* (blue/red): −1.2
  b* (yellow/green): −0.7
  reflectance of visible light at 450 nm: 103.784
  reflectance of visible light at 750 nm: 101.164
  ΔE (versus disk R): 22.83
[17]
  L* (lightness/darkness): 99.3
  a* (blue/red): 0
  reflectance of visible light at 450 nm: 98.555
  reflectance of visible light at 750 nm: 98.659
[18]
  L* (lightness/darkness): 96.9
  a* (blue/red): 0.4
  appearance of disk after treatment: Color was removed as effectively as with a dried sample
  b* (yellow/green): 0.3
  reflectance of visible light at 450 nm: 89.892
  reflectance of visible light at 750 nm: 94.030
  ΔE (versus tea stain): 13.44
